Data taken from ChEMBL document CHEMBL1201862, “PubChem BioAssay data set” (2004).
Calls of active or inactive are those of the source.

Assays:
[1] = target: T1, Sentrin-specific protease 1 (Homo sapiens, UniProt Q9P0U3); experiment: Dose response confirmation of small molecule inhibitors of the catalytic domain of the SUMO protease, SENP1 in a FRET assay.; type: functional; settings: read-out: IC50_Mean
T1 sequence (Q9P0U3 whole entry): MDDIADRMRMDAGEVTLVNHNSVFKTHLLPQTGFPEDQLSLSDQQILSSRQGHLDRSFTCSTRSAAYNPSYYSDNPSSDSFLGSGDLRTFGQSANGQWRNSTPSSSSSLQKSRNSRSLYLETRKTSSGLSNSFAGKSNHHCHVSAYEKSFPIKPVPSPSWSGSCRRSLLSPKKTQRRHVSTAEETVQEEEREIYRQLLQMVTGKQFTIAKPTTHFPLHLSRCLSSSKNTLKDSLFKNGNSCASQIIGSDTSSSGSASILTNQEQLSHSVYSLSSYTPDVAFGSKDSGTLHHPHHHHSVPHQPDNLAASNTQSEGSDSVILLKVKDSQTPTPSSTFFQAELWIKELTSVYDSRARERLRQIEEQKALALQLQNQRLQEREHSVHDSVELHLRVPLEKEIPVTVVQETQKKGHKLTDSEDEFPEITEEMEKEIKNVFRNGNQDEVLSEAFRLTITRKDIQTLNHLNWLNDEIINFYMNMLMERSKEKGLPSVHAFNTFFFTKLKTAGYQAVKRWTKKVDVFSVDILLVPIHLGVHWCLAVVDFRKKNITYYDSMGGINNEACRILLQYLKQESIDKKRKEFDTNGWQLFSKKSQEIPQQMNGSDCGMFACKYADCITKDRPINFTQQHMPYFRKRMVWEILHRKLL

[2] = target: T1, Sentrin-specific protease 1; experiment: potency of human SENP1 inhibitors, dose response, biochemical, kinetic FRET (AID 651697); type: functional; settings: read-out: IC50_Mean
[3] = target: Mitochondrial peptide methionine sulfoxide reductase (Bos taurus, UniProt P54149); experiment: Absorbance-based biochemical high throughput dose response assay for activators of Methionine sulfoxide reductase A (MsrA).; type: functional
Mitochondrial peptide methionine sulfoxide reductase, sequence (P54149 whole entry, the tested form may be a part): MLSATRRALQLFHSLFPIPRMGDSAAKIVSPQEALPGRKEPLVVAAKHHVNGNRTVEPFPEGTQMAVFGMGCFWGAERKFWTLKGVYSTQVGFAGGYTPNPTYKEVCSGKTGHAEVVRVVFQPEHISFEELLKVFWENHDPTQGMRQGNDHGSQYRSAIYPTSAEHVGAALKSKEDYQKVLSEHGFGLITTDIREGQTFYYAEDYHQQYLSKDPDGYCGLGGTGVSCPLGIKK

[4] = Fluorescence-based cell-based high throughput dose response assay for inhibitors of the interaction of nucleotide-binding oligomerization domain containing 2 (NOD2) and the receptor-interacting serine-threonine kinase 2 (RIPK2).; type: functional; settings: Homo sapiens
[5] = target: T2, Rac GTPase-activating protein 1 (Homo sapiens, UniProt Q9H0H5); experiment: MgcRacGAP GTPase-activating activity inhibitors, confirmation, biochemical, ADP Hunter fluorescence, primary and confirmatory (AID 624330); type: functional
T2 sequence (Q9H0H5 whole entry): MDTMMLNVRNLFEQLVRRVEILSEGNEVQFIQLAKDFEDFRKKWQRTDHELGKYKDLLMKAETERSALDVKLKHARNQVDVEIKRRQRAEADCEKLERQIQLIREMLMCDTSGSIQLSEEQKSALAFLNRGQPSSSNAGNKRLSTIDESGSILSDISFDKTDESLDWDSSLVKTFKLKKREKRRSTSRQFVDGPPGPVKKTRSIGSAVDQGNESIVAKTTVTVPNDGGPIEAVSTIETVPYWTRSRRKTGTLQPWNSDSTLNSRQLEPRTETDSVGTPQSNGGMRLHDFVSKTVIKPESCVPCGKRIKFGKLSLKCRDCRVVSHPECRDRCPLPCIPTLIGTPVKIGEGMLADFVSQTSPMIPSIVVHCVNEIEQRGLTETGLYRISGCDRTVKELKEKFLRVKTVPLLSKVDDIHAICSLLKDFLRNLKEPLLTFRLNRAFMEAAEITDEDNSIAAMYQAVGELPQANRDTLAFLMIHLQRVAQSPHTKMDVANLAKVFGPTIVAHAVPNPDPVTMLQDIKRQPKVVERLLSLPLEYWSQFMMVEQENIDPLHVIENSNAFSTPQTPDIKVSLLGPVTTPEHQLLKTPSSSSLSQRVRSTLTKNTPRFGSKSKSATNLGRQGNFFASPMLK

[6] = target: Glucose-6-phosphate 1-dehydrogenase (Homo sapiens, UniProt P11413); experiment: human G6PD enzyme inhibitors, dose response, selectivity assay for P. falciparum G6PD inhibitor project, biochemical, fluorescence (AID 504792); type: functional
Glucose-6-phosphate 1-dehydrogenase, sequence (P11413 whole entry): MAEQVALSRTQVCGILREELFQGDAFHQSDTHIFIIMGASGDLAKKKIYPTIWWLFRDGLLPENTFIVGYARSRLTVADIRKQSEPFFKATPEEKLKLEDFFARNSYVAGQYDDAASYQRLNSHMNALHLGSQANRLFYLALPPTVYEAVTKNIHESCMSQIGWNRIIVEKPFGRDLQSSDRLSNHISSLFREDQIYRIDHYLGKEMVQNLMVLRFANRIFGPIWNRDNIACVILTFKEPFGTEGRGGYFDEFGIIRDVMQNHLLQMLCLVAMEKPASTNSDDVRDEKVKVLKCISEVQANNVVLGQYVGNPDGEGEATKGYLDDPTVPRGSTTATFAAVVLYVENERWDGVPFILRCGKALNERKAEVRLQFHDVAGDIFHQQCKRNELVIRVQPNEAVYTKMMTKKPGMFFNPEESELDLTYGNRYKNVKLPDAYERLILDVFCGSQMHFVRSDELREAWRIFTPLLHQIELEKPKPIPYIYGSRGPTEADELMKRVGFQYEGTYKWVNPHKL

Hexokinase = target: T3, Hexokinase (Trypanosoma brucei, UniProt Q38C41); experiment: Confirmation assay for inhibitors of Trypanosoma brucei hexokinase 1-Analogue-first series. [Related pubchem assays (depositor defined):AID1430, AID1632, AID2516, AID2560, AID2579, AID2600, AID449725, AID492951]; type: functional
T3 sequence (Q38C41 whole entry): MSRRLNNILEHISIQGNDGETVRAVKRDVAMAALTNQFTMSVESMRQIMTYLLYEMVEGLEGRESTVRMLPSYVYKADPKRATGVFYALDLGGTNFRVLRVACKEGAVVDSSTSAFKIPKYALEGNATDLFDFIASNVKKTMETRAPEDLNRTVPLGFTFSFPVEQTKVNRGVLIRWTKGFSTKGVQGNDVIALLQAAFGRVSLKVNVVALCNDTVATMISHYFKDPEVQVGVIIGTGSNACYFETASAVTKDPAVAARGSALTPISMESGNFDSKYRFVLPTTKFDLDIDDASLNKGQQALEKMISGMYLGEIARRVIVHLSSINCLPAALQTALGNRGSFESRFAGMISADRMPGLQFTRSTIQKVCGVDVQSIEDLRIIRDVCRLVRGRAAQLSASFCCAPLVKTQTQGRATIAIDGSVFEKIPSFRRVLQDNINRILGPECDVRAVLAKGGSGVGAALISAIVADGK

Beta Lactamase = Beta Lactamase (Pseudomonas aeruginosa, UniProt Q932Y6); experiment: beta-lactamase reporter inhibitor potency, dose response, artefact control for NOD2-RIPK2 interaction inhibitor project, BLA reporter cells, FRET fluorescence (AID 651552); type: functional, cell-based
Beta Lactamase, sequence (Q932Y6 whole entry, the tested form may be a part): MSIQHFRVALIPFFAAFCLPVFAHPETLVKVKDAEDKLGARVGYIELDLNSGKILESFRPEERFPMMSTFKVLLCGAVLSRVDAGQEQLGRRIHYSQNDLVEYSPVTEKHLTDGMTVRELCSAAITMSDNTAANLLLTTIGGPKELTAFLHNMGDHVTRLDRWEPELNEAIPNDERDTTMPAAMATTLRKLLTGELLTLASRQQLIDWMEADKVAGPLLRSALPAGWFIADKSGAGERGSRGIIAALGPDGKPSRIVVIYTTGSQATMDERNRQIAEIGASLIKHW

[7] = CEM21 lymphoblast cell cytotoxicity, dose response, cytotoxicity control for viral fusion inhibitor project, CellTiter-Glo luminescence, cherry-picked (AID 652042); type: functional, cell-based;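 note: potency for signal decrease meaning cytotoxicity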
[8] = inhibitors of HIV Env-driven cell fusion, dose response, cherry-pick (AID 652057); type: functional, cell-based
[9] = target: T4, Probable nicotinate-nucleotide adenylyltransferase (Staphylococcus aureus (strain N315), UniProt P65502); type: functional, Staphylococcus aureus subsp. aureus N315; settings: read-out: IC50_Mean;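 for IC50 Mean: confirmatory dose-response retesting of NadD inhibitor hits first found in an ultra-high-throughput screen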
T4 sequence (P65502 whole entry): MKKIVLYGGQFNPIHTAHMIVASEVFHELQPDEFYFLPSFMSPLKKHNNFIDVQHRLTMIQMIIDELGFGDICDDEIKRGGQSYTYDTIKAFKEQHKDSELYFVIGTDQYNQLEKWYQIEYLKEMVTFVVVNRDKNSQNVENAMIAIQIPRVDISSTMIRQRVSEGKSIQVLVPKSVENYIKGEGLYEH

[10] = target: T4, Probable nicotinate-nucleotide adenylyltransferase; type: functional, Staphylococcus aureus subsp. aureus N315
Protein RecA = target: T5, Protein RecA (Mycobacterium tuberculosis, UniProt P9WHJ3); experiment: Fluorescence Cell-Free Homogeneous Dose Retest to Identify Inhibitors of RecA-Intein Splicing Activity. [Related pubchem assays (depositor defined):AID2097, AID2223, AID489010, AID492950]; type: functional
T5 sequence (P9WHJ3 whole entry): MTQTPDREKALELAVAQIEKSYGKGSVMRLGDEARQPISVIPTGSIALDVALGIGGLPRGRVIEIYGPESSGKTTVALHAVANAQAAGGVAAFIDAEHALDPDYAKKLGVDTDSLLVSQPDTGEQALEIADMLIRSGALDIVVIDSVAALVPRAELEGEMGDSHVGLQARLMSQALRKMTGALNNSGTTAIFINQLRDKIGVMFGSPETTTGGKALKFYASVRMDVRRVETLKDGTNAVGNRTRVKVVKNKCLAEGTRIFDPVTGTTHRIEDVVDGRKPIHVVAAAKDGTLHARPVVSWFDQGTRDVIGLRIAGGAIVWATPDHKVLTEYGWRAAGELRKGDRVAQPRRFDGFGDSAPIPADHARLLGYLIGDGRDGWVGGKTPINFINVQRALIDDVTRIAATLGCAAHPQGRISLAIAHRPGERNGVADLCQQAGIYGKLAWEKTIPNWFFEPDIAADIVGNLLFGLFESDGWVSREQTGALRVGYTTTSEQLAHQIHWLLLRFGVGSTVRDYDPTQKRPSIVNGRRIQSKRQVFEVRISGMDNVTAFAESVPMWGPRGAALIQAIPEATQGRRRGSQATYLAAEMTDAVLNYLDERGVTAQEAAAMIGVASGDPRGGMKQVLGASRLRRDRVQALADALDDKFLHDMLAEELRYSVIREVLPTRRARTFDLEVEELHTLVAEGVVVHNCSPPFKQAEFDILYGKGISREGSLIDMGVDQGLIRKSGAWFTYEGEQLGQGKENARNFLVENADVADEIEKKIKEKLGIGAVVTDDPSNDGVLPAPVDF

[11] = target: T6, Replicative DNA helicase DnaB (Mycobacterium tuberculosis, UniProt P9WMR3); experiment: DnaB intein splicing inhibitors, dose response, biochemical, cell-free fluorescence (AID 449749); type: functional
T6 sequence (P9WMR3 whole entry): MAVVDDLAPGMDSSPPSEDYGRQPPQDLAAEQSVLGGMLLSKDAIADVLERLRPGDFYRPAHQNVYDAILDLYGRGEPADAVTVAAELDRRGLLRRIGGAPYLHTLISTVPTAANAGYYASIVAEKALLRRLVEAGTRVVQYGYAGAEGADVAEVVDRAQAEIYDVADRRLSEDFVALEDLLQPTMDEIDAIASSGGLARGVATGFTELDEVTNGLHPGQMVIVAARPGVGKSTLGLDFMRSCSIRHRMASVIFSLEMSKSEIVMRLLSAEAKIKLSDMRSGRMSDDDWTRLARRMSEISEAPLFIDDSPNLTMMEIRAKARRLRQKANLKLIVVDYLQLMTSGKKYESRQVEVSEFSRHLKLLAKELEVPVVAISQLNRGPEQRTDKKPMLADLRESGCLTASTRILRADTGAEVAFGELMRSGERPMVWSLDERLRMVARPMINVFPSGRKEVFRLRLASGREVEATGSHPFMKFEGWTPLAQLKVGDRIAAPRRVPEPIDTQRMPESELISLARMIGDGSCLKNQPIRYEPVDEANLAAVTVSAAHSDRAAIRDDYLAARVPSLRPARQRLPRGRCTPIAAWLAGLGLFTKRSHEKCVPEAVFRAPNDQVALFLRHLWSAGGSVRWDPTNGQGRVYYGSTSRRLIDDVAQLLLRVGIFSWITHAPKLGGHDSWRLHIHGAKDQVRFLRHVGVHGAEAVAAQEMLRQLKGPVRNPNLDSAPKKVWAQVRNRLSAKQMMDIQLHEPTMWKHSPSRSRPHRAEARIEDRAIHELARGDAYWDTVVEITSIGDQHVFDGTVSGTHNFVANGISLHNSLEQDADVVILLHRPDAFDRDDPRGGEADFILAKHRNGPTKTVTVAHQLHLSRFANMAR

[12] = target: T7, Carboxy-terminal domain RNA polymerase II polypeptide A small phosphatase 1 (Homo sapiens, UniProt Q9GZU7); experiment: inhibitors of CTDSP1, concentration-response testing, biochemical assay, absorbance-based, actives from ultra-high-throughput screening (AID 540297); type: functional
T7 sequence (Q9GZU7 whole entry): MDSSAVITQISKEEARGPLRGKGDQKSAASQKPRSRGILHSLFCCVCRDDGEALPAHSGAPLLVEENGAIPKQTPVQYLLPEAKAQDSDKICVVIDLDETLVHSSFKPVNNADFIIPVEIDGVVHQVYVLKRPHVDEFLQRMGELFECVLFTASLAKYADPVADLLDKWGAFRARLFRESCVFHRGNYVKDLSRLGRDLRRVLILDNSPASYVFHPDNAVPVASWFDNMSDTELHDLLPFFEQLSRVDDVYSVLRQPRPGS

Paired box protein Pax-8 = Paired box protein Pax-8 (Homo sapiens, UniProt Q06710); experiment: inhibitors of PAX8-driven TPO luciferase reporter, dose response, RMG-I cells, cherry-pick (AID 687027); type: functional, cell-based;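 note: luciferase reporter driven by Pax8 target thyroperoxidase promoter measured by SteadyGlo luminescence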
Paired box protein Pax-8, sequence (Q06710 whole entry): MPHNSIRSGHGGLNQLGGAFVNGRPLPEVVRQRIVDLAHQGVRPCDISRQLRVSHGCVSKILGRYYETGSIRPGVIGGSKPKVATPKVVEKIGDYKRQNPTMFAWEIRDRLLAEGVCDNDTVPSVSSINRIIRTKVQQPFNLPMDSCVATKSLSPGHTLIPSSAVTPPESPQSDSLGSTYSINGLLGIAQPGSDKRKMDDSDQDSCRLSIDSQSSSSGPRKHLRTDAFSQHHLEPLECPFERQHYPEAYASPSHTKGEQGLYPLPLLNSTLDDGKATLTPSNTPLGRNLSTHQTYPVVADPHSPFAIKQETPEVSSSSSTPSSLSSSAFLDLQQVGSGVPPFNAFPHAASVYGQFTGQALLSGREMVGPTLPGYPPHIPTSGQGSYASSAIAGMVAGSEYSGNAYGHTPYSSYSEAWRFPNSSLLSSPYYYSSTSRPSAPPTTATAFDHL

[13] = target: T8, Microphthalmia-associated transcription factor (Homo sapiens, UniProt O75030); experiment: TRPM1 promoter luciferase signal decrease, dose response, MITF inhibitor project, cell-based, SK-MEL-5, cherry-picked, set 3 (AID 493073); type: functional
T8 sequence (O75030 whole entry): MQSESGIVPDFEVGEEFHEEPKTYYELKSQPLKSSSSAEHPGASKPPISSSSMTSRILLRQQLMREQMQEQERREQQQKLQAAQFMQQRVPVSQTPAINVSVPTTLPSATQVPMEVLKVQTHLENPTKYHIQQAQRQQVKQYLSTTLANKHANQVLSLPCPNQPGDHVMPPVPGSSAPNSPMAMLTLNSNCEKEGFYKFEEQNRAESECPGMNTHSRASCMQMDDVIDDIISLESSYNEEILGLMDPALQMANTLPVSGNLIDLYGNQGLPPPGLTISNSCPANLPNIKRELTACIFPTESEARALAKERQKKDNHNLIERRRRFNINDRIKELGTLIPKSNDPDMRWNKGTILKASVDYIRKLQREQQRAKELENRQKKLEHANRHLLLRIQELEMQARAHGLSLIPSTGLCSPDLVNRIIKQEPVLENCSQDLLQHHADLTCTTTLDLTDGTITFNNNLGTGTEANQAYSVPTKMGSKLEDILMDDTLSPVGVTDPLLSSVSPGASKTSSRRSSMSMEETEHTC

[14] = non-specific cell cytotoxicity, dose response, cytotoxicity control for PAX8 inhibitor project, plate reader, dry powder samples (AID 743021); type: functional, cell-based
Nonstructural protein 1 = Nonstructural protein 1 (Influenza A virus, UniProt Q194T2); type: functional, Influenza A virus (A/California/07/2009(H1N1))
Nonstructural protein 1, sequence (Q194T2 whole entry): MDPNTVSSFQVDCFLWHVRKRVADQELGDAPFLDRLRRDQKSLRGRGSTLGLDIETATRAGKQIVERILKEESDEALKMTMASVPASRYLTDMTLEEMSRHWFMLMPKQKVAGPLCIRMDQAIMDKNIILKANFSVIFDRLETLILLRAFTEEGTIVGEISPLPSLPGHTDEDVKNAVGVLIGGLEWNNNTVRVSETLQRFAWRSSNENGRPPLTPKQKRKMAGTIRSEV

Structure (SMILES): COc1ccc(O)c(/C=N/n2c(-c3ccco3)cs/c2=N\c2cccnc2)c1
- IC50 [1]: 23.1 µM (inactive)
- IC50 [2]: 49.7 µM (inactive)

Structure (SMILES): COC(=O)C1=CC(C(=O)c2cccs2)=NN(c2ccc(OC)cc2)C1C(=O)OC (stereo not drawn)
- IC50 [1]: 34.5 µM (inactive)
- IC50 [2]: 27.9 µM (inactive)

Structure (SMILES): O=c1c2ccc(F)cc2sn1-c1ccccc1
- EC50 [3]: > 104 µM (inactive)
- IC50 [4]: 5.43 µM (active)
- IC50 [5]: 36.4 µM (active)
- IC50 [6]: 11.8 µM (active)
- IC50 (Hexokinase): 2.31 µM (active)
- IC50 (Beta Lactamase): 23.4 µM (inactive)

Structure (SMILES): C[C@@H]1CN([C@@H](C)CO)C(=O)c2cccc(NC(=O)c3cnccn3)c2O[C@H]1CN(C)Cc1ccc(Cl)c(Cl)c1
- AC50 [7]: 49.9 µM (active)
- AC50 [8]: 53.4 µM (active)

Structure (SMILES): CCn1c(SCC(=O)Nc2nc(-c3ccc(C)cc3)cs2)nnc1-c1ccccc1O
- IC50 [9]: 41.6 µM (active)
- IC50 [10]: 17.9 µM (active)
- EC50 (Protein RecA): 174 µM (active)
- AC50 [11]: 3.46 µM (active)

Structure (SMILES): COc1cccc(N2[C@@H](CC(=O)O)c3cc(C(F)(F)F)ccc3S2(=O)=O)c1
- IC50 [9]: 31.7 µM (active)
- IC50 [10]: 17.4 µM (active)
- IC50 [12]: 5.53 µM (active)

Structure (SMILES): CCS(=O)(=O)c1ccc(N=Nc2ccc(O)c3ncccc23)c(OC)c1
- AC50 (Paired box protein Pax-8): 1.19 µM (active)
- AC50 [13]: 9.23 µM (active)
- AC50 [14]: 50.2 µM (active)
- IC50 (Nonstructural protein 1): 9.78 µM (active)
